Measurements as given in PMC6409085, “Three odorant-binding proteins are involved in the behavioral response of Sogatella furcifera to rice plant volatiles” (PeerJ, 2019).
“And” between values parts separate entries of the source, which are not always exact repeats. Equal entries are not always repeated. Where two headings read alike, the source gives them in different places.

Key:
Test in all cases: biochemical
Type in all cases: binding
[1] = molecular target: SfurOBP1 (Sogatella furcifera, UniProt V5T8N5); details: for Fluorescence competitive binding assay, fluorescence intensity: OBP1, three replicate columns
Sequence of SfurOBP1 (V5T8N5 entry or part of it): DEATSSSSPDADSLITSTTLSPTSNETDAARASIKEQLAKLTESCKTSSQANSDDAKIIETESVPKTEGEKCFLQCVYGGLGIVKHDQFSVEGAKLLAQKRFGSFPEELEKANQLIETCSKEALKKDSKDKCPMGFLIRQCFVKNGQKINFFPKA
Procedure: (§1) Thirty-six rice odorants ([He et al., 2014]; [Wang et al., 2017]) and 1-N-phenyl-naphthylamine (1-NPN) were purchased from Sigma-Aldrich (St Louis, MO, USA). These odorants and 1-NPN were dissolved in high-performance liquid chromatography (HPLC) purify grade methanol for 1.0 mM as work solution.
(§2) Fluorescence competitive binding assays were performed on Tecan Spark 10M (Tecan Group Ltd., Männedorf, Switzerland) with the F96 Black ELIAS Plate (Sangon) ([Khuhro et al., 2017]; [Liu et al., 2017]). The solutions were excited at 337 nm and emission spectra were recorded between 390 and 490 nm. First, to test the binding constants of 1-NPN to the SfurOBPs, a 2.0 µM solution of protein in 50 mM Tris-HCl (pH = 7.4) was titrated with 1 mM 1-NPN to achieve virous concentrations. Next, the competitive binding of each odorant was measured using the 1-NPN as fluorescent reporter and odorant as competitor. The concentrations of protein and 1-NPN were both 2.0 µM, the odorant added after protein and 1-NPN added into the well of ELIAS Plate for 2 min. The final concentrations of each competitor were 2, 4, 6, 8, 10, 12, 14, 16, 18 and 20 µM. After 2 min of odorant added, the fluorescence intensity was measured and recorded. The volume of mixed solution in each well was maintained at 250 µL. Each interaction was performed in triplicates.
(§3) GraphPad Prism 7.0 software (GraphPad Software, Inc., La Jolla, CA, USA) was used to calculated and generated the binding constants (K1−NPN) of 1-NPN to SfurOBPs and relative Scatchard plots ([Ban et al., 2003]; [Li et al., 2016]). Dissociation constant (Ki) of each odorant to SfurOBP was computed from the corresponding IC50 value (the half maximal inhibitory concentration), using the following equation: Ki=[IC50]/(1 + [1-NPN]/K1−NPN), where [1-NPN] is the free concentration of 1-NPN and K1−NPN is the dissociation constant of the complex protein/1-NPN.

[2] = molecular target: SfurOBP2 (Sogatella furcifera, UniProt V5T759)
Sequence of SfurOBP2 (V5T759 entry or part of it): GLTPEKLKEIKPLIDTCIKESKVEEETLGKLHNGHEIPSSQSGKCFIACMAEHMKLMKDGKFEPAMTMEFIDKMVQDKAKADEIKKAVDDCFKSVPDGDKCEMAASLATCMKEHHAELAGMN
Procedure: as §1, §2, §3

[3] = molecular target: SfurOBP11 (Sogatella furcifera, UniProt V5T6E3)
Sequence of SfurOBP11 (V5T6E3 entry or part of it): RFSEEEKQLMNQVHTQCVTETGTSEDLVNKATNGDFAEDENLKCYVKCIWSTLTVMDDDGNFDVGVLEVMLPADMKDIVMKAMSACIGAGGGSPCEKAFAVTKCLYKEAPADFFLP
Procedure: as §1, §2, §3

[4] = molecular target: SfurOBP3 (Sogatella furcifera, UniProt V5T818); details: for Fluorescence competitive binding assay, fluorescence intensity: OBP3, three replicate columns
Sequence of SfurOBP3 (V5T818 entry or part of it): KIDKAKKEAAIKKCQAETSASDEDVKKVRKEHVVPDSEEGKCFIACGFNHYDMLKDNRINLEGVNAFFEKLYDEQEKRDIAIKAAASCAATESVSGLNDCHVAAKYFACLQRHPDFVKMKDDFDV
Procedure: as §1, §2, §3

[5] = SfurOBP1, protein and 1-NPN both 2.0 µM, competitor 2-20 µM, read-out: IC50
[6] = SfurOBP2, protein and 1-NPN both 2.0 µM, competitor 2-20 µM, read-out: IC50
[7] = SfurOBP11, protein and 1-NPN both 2.0 µM, competitor 2-20 µM, read-out: IC50
[8] = SfurOBP3, protein and 1-NPN both 2.0 µM, competitor 2-20 µM, read-out: IC50

With C[C@@H]1CC[C@H]2C(C)(C)[C@H]3C[C@@]12CC[C@@]3(C)O [cedrol] the IC50 [1] was greater than 20 µM, the “Fluorescence competitive binding assay, fluorescence intensity” value ([1]; ligand concentration 2 (μM)) was 6995 and 7876 and 8408 and the “Fluorescence competitive binding assay, fluorescence intensity” value ([1]; ligand concentration 4 (μM)) was 8498 and 11154 and 11504. For the same molecule, the “Fluorescence competitive binding assay, fluorescence intensity” value ([1]; ligand concentration 6 (μM)) was 10601 and 9220 and 11976, the “Fluorescence competitive binding assay, fluorescence intensity” value ([1]; ligand concentration 8 (μM)) was 9019 and 11150 and 9994 and the “Fluorescence competitive binding assay, fluorescence intensity” value ([1]; ligand concentration 10 (μM)) was 10329 and 10734 and 11532. The “Fluorescence competitive binding assay, fluorescence intensity” value ([1]; ligand concentration 12 (μM)) was 12388 and 11952 and 13123, the “Fluorescence competitive binding assay, fluorescence intensity” value ([1]; ligand concentration 14 (μM)) was 12489 and 14285 and 14049 and the “Fluorescence competitive binding assay, fluorescence intensity” value ([1]; ligand concentration 16 (μM)) was 13812 and 12078 and 13153. For the same molecule, the “Fluorescence competitive binding assay, fluorescence intensity” value ([1]; ligand concentration 18 (μM)) was 15290 and 17034 and 15790, the “Fluorescence competitive binding assay, fluorescence intensity” value ([1]; ligand concentration 20 (μM)) was 14831 and 15054 and 15511 and the IC50 [2] was greater than 20 µM. The “Fluorescence competitive binding assay, OBP2 (raw fluorescence reading)” value ([2]; ligand concentration 2 (unit not given), replicate column 1 of 3) was 24497, the “Fluorescence competitive binding assay, OBP2 (raw fluorescence reading)” value ([2]; ligand concentration 2 (unit not given), replicate column 2 of 3) was 23498 and the “Fluorescence competitive binding assay, OBP2 (raw fluorescence reading)” value ([2]; ligand concentration 2 (unit not given), replicate column 3 of 3) was 23591. For the same molecule, the “Fluorescence competitive binding assay, OBP2 (raw fluorescence reading)” value ([2]; ligand concentration 4 (unit not given), replicate column 1 of 3) was 27085, the “Fluorescence competitive binding assay, OBP2 (raw fluorescence reading)” value ([2]; ligand concentration 4 (unit not given), replicate column 2 of 3) was 27496 and the “Fluorescence competitive binding assay, OBP2 (raw fluorescence reading)” value ([2]; ligand concentration 4 (unit not given), replicate column 3 of 3) was 25040. For the same molecule, the “Fluorescence competitive binding assay, OBP2 (raw fluorescence reading)” value ([2]; ligand concentration 6 (unit not given), replicate column 1 of 3) was 30107, the “Fluorescence competitive binding assay, OBP2 (raw fluorescence reading)” value ([2]; ligand concentration 6 (unit not given), replicate column 2 of 3) was 26969 and the “Fluorescence competitive binding assay, OBP2 (raw fluorescence reading)” value ([2]; ligand concentration 6 (unit not given), replicate column 3 of 3) was 25579. For the same molecule, the “Fluorescence competitive binding assay, OBP2 (raw fluorescence reading)” value ([2]; ligand concentration 8 (unit not given), replicate column 1 of 3) was 26802, the “Fluorescence competitive binding assay, OBP2 (raw fluorescence reading)” value ([2]; ligand concentration 8 (unit not given), replicate column 2 of 3) was 26446 and the “Fluorescence competitive binding assay, OBP2 (raw fluorescence reading)” value ([2]; ligand concentration 8 (unit not given), replicate column 3 of 3) was 25979. The “Fluorescence competitive binding assay, OBP2 (raw fluorescence reading)” value ([2]; ligand concentration 10 (unit not given), replicate column 1 of 3) was 26972, the “Fluorescence competitive binding assay, OBP2 (raw fluorescence reading)” value ([2]; ligand concentration 10 (unit not given), replicate column 2 of 3) was 25158 and the “Fluorescence competitive binding assay, OBP2 (raw fluorescence reading)” value ([2]; ligand concentration 10 (unit not given), replicate column 3 of 3) was 26522. For the same molecule, the “Fluorescence competitive binding assay, OBP2 (raw fluorescence reading)” value ([2]; ligand concentration 12 (unit not given), replicate column 1 of 3) was 24638, the “Fluorescence competitive binding assay, OBP2 (raw fluorescence reading)” value ([2]; ligand concentration 12 (unit not given), replicate column 2 of 3) was 24959 and the “Fluorescence competitive binding assay, OBP2 (raw fluorescence reading)” value ([2]; ligand concentration 12 (unit not given), replicate column 3 of 3) was 25011. The “Fluorescence competitive binding assay, OBP2 (raw fluorescence reading)” value ([2]; ligand concentration 14 (unit not given), replicate column 1 of 3) was 25754, the “Fluorescence competitive binding assay, OBP2 (raw fluorescence reading)” value ([2]; ligand concentration 14 (unit not given), replicate column 2 of 3) was 26325 and the “Fluorescence competitive binding assay, OBP2 (raw fluorescence reading)” value ([2]; ligand concentration 14 (unit not given), replicate column 3 of 3) was 24806. For the same molecule, the “Fluorescence competitive binding assay, OBP2 (raw fluorescence reading)” value ([2]; ligand concentration 16 (unit not given), replicate column 1 of 3) was 22837, the “Fluorescence competitive binding assay, OBP2 (raw fluorescence reading)” value ([2]; ligand concentration 16 (unit not given), replicate column 2 of 3) was 21773 and the “Fluorescence competitive binding assay, OBP2 (raw fluorescence reading)” value ([2]; ligand concentration 16 (unit not given), replicate column 3 of 3) was 21108. For the same molecule, the “Fluorescence competitive binding assay, OBP2 (raw fluorescence reading)” value ([2]; ligand concentration 18 (unit not given), replicate column 1 of 3) was 27379, the “Fluorescence competitive binding assay, OBP2 (raw fluorescence reading)” value ([2]; ligand concentration 18 (unit not given), replicate column 2 of 3) was 25169 and the “Fluorescence competitive binding assay, OBP2 (raw fluorescence reading)” value ([2]; ligand concentration 18 (unit not given), replicate column 3 of 3) was 23516. For the same molecule, the “Fluorescence competitive binding assay, OBP2 (raw fluorescence reading)” value ([2]; ligand concentration 20 (unit not given), replicate column 1 of 3) was 25091, the “Fluorescence competitive binding assay, OBP2 (raw fluorescence reading)” value ([2]; ligand concentration 20 (unit not given), replicate column 2 of 3) was 24420 and the “Fluorescence competitive binding assay, OBP2 (raw fluorescence reading)” value ([2]; ligand concentration 20 (unit not given), replicate column 3 of 3) was 23245. For the same molecule, the IC50 [3] was greater than 20 µM, the “Fluorescence intensity, fluorescence competitive binding assay, OBP11” value (from here on “Fluorescence intensity … OBP11”) ([3]; ligand concentration 2, replicate 1) was 32664 and the “Fluorescence intensity … OBP11” value ([3]; ligand concentration 2, replicate 2) was 32061. For the same molecule, the “Fluorescence intensity … OBP11” value ([3]; ligand concentration 2, replicate 3) was 32191, the “Fluorescence intensity … OBP11” value ([3]; ligand concentration 4, replicate 1) was 30812 and the “Fluorescence intensity … OBP11” value ([3]; ligand concentration 4, replicate 2) was 37566. For the same molecule, the “Fluorescence intensity … OBP11” value ([3]; ligand concentration 4, replicate 3) was 35078, the “Fluorescence intensity … OBP11” value ([3]; ligand concentration 6, replicate 1) was 34551 and the “Fluorescence intensity … OBP11” value ([3]; ligand concentration 6, replicate 2) was 34452. The “Fluorescence intensity … OBP11” value ([3]; ligand concentration 6, replicate 3) was 36785, the “Fluorescence intensity … OBP11” value ([3]; ligand concentration 8, replicate 1) was 32906 and the “Fluorescence intensity … OBP11” value ([3]; ligand concentration 8, replicate 2) was 35488. The “Fluorescence intensity … OBP11” value ([3]; ligand concentration 8, replicate 3) was 34811, the “Fluorescence intensity … OBP11” value ([3]; ligand concentration 10, replicate 1) was 34631 and the “Fluorescence intensity … OBP11” value ([3]; ligand concentration 10, replicate 2) was 35572. For the same molecule, the “Fluorescence intensity … OBP11” value ([3]; ligand concentration 10, replicate 3) was 36351, the “Fluorescence intensity … OBP11” value ([3]; ligand concentration 12, replicate 1) was 32777 and the “Fluorescence intensity … OBP11” value ([3]; ligand concentration 12, replicate 2) was 37222. The “Fluorescence intensity … OBP11” value ([3]; ligand concentration 12, replicate 3) was 35927, the “Fluorescence intensity … OBP11” value ([3]; ligand concentration 14, replicate 1) was 33134 and the “Fluorescence intensity … OBP11” value ([3]; ligand concentration 14, replicate 2) was 35392. The “Fluorescence intensity … OBP11” value ([3]; ligand concentration 14, replicate 3) was 35226, the “Fluorescence intensity … OBP11” value ([3]; ligand concentration 16, replicate 1) was 32933 and the “Fluorescence intensity … OBP11” value ([3]; ligand concentration 16, replicate 2) was 34203. For the same molecule, the “Fluorescence intensity … OBP11” value ([3]; ligand concentration 16, replicate 3) was 33568, the “Fluorescence intensity … OBP11” value ([3]; ligand concentration 18, replicate 1) was 37284 and the “Fluorescence intensity … OBP11” value ([3]; ligand concentration 18, replicate 2) was 38034. The “Fluorescence intensity … OBP11” value ([3]; ligand concentration 18, replicate 3) was 36646, the “Fluorescence intensity … OBP11” value ([3]; ligand concentration 20, replicate 1) was 39273 and the “Fluorescence intensity … OBP11” value ([3]; ligand concentration 20, replicate 2) was 38740. The “Fluorescence intensity … OBP11” value ([3]; ligand concentration 20, replicate 3) was 33015, the IC50 [4] was greater than 20 µM and the “Fluorescence competitive binding assay, fluorescence intensity” value ([4]; ligand concentration 2) was 55754 and 49842 and 56462. The “Fluorescence competitive binding assay, fluorescence intensity” value ([4]; ligand concentration 4) was 68851 and 68657 and 83563, the “Fluorescence competitive binding assay, fluorescence intensity” value ([4]; ligand concentration 6) was 77285 and 86181 and 100023 and the “Fluorescence competitive binding assay, fluorescence intensity” value ([4]; ligand concentration 8) was 86444 and 86480 and 86528. The “Fluorescence competitive binding assay, fluorescence intensity” value ([4]; ligand concentration 10) was 98647 and 101699 and 124352, the “Fluorescence competitive binding assay, fluorescence intensity” value ([4]; ligand concentration 12) was 107439 and 105795 and 90567 and the “Fluorescence competitive binding assay, fluorescence intensity” value ([4]; ligand concentration 14) was 124768 and 101594 and 116276. The “Fluorescence competitive binding assay, fluorescence intensity” value ([4]; ligand concentration 16) was 81951 and 95706 and 104699, the “Fluorescence competitive binding assay, fluorescence intensity” value ([4]; ligand concentration 18) was 130597 and 114825 and 98253 and the “Fluorescence competitive binding assay, fluorescence intensity” value ([4]; ligand concentration 20) was 111183 and 106493 and 98789.

CC(C)COC(=O)CCCCC(=O)OCC(C)C [diisobutyl adipate] showed an IC50 [1, 5] greater than 20 µM, an IC50 [2, 6] greater than 20 µM and an IC50 [3, 7] greater than 20 µM. The IC50 [4, 8] was greater than 20 µM.

With CCCCCCCCCCCCCCCC(=O)OC [methyl hexadecanoate] the IC50 [1, 5] was greater than 20 µM, the IC50 [2, 6] was greater than 20 µM and the IC50 [3, 7] was greater than 20 µM. For the same molecule, the IC50 [4, 8] was greater than 20 µM.
